Among the test systems are CAKI-1; COLO 205; SN12C; T47D; SK-OV-3; SNB-75; UACC-257; PC-3; NCI-H522; SF-295; UO-31; RPMI-8226; NCI-H226; OVCAR-8; NCI-H460; IGROV-1; LOX IMVI; SW-620; SK-MEL-28; HL-60.
Common to all, as to test: DTP human tumour cell line panel, 48 h

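All cell lines were grown in 96-well plates and treated with compound for 48 hours. GI50 marks 50% less growth.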 Active and inactive are the calls of the source. Cut-off read from the data, not from the text of the source: active = GI50 up to about 1.1 µM and inactive = higher. Bounds are passed on as bounds.

Experimental findings from ChEMBL document CHEMBL1201862, “PubChem BioAssay data set” (2004) are described below.

For orientation: GI50 means the concentration giving 50% growth inhibition. In the case of `COc1cccc(/N=N/C(=N/NC(=O)c2cc(Cl)ccc2O)c2ccc(N(CCC#N)CCC#N)cc2C)c1`, the GI50 is 48.3 µM (inactive) in the test with CAKI-1; 6.21 µM (inactive) in the test on COLO 205; 27.5 µM (inactive) with SN12C; 7.35 µM (inactive) in the test with T47D; 52 µM (inactive) in the test on SK-OV-3; 21.4 µM (inactive) in the test on SNB-75. For the same compound, the GI50 in the test on UACC-257 is 10.1 µM (inactive); with PC-3 it was 23.2 µM (inactive); in the test on NCI-H522, 9.1 µM (inactive); in the test on SF-295 it was 37.3 µM (inactive); in the test with UO-31, 38.8 µM (inactive); with RPMI-8226, 61.2 µM (inactive). The GI50 is 26.2 µM (inactive) with NCI-H226, 16.9 µM (inactive) in the test on OVCAR-8, 32.7 µM (inactive) in the test on NCI-H460 and 23.3 µM (inactive) in the test on IGROV-1.
For the compound `O=C1c2cc(Cl)ccc2N=C(NC2CCCC2)C2CSCN12` (configuration not stated), the GI50 with CAKI-1 is > 100 µM (inactive); in the test with LOX IMVI it was > 100 µM (inactive); with COLO 205, > 100 µM (inactive); in the test with SN12C, > 100 µM (inactive); in the test on T47D it was 42 µM (inactive); in the test with SK-OV-3 it was > 100 µM (inactive). The GI50 with SNB-75 was 52.7 µM (inactive); in the test on UACC-257 it was 71.6 µM (inactive); in the test with PC-3 it was 55.8 µM (inactive); in the test on NCI-H522 it was 63.8 µM (inactive); in the test on SF-295, > 100 µM (inactive); in the test on UO-31 it was 46.3 µM (inactive). For the same compound, the GI50 is 87.5 µM (inactive) in the test with RPMI-8226; 60 µM (inactive) with NCI-H226; > 100 µM (inactive) in the test on OVCAR-8; > 100 µM (inactive) in the test on SW-620; 47.4 µM (inactive) with NCI-H460; > 100 µM (inactive) in the test on IGROV-1. Further, in the test on SK-MEL-28, the GI50 is > 100 µM (inactive).
With `O=C(CC1(O)C(=O)Nc2c(Cl)cc(Cl)cc21)c1cccc([N+](=O)[O-])c1` (configuration not stated), the GI50 in the test on CAKI-1 was 32.6 µM (inactive); in the test with LOX IMVI, 17 µM (inactive); in the test on COLO 205, 33.3 µM (inactive); in the test with SN12C, 24.7 µM (inactive); with T47D, 63.5 µM (inactive); in the test on SK-OV-3, 38.6 µM (inactive). For the same compound, the GI50 with SNB-75 was 15.2 µM (inactive); in the test on UACC-257, 16 µM (inactive); in the test with PC-3 it was 32.1 µM (inactive); with NCI-H522, 67 µM (inactive); in the test with SF-295, 31 µM (inactive); in the test with UO-31, 38.6 µM (inactive). Moreover, the GI50 with RPMI-8226 is 28.2 µM (inactive); in the test on NCI-H226 it was 31.6 µM (inactive); in the test on OVCAR-8, 29.9 µM (inactive); in the test with SW-620, 20.1 µM (inactive); in the test with NCI-H460, 39.9 µM (inactive); in the test on IGROV-1, 18.2 µM (inactive). Also, in the test with SK-MEL-28, the GI50 is 32.9 µM (inactive).
For the compound `COc1cc(C2=C(C)[C@@H]3CN(CC=C3c3ccc(Cl)cc3)C2)c(S(=O)(=O)O)cc1OC`, the GI50 in the test on CAKI-1, in the test on LOX IMVI, in the test with COLO 205, with SN12C, with T47D and in the test on SK-OV-3 was > 100 µM (inactive) in each case. Further, the GI50 in the test on SNB-75, in the test with UACC-257, in the test on PC-3, in the test on NCI-H522, with SF-295 and with UO-31 was > 100 µM (inactive) throughout. The GI50 with RPMI-8226, with NCI-H226, in the test with OVCAR-8, with SW-620, with IGROV-1 and in the test with SK-MEL-28 was > 100 µM (inactive) each time.
`COP(=O)(OC)C(NC=O)P(=O)(OC)OC`: the GI50 with CAKI-1, in the test on LOX IMVI, in the test with COLO 205, with SN12C, in the test on T47D and in the test with SK-OV-3 was > 100 µM (inactive) each time. In addition, the GI50 in the test with PC-3, in the test on SF-295, in the test on HL-60, in the test with UO-31, with RPMI-8226 and in the test with NCI-H226 was > 100 µM (inactive) throughout. Moreover, the GI50 in the test with OVCAR-8, in the test on SW-620, with NCI-H460, in the test on IGROV-1 and with SK-MEL-28 was > 100 µM (inactive) throughout.
`N#CC(=S)Nc1cccc(Cl)c1`: the GI50 in the test on CAKI-1 was 41.9 µM (inactive); in the test on LOX IMVI it was 39.3 µM (inactive); with COLO 205 it was 36.1 µM (inactive); in the test with SN12C it was 44.1 µM (inactive); with T47D it was 27.2 µM (inactive); with SK-OV-3 it was 33.3 µM (inactive). Moreover, the GI50 in the test on SNB-75 is 23.9 µM (inactive); in the test with UACC-257, 37.2 µM (inactive); with PC-3, 32.7 µM (inactive); in the test on SF-295, 23.8 µM (inactive); with HL-60, 33.2 µM (inactive); in the test on RPMI-8226 it was 5.38 µM (inactive). Further, the GI50 in the test with NCI-H226 was 23.9 µM (inactive); in the test on OVCAR-8 it was 32.3 µM (inactive); in the test with SW-620, 53.2 µM (inactive); in the test on NCI-H460 it was 19.9 µM (inactive); in the test on IGROV-1, 5.13 µM (inactive); with SK-MEL-28, 44.7 µM (inactive).
Regarding `O=C(c1ccccc1)C1N=NCC1c1ccc([N+](=O)[O-])cc1` (configuration not stated), the GI50 was 15 µM (inactive) in the test on CAKI-1; 36.6 µM (inactive) in the test on LOX IMVI; 39.4 µM (inactive) with COLO 205; > 100 µM (inactive) in the test on SN12C; 3.91 µM (inactive) in the test on T47D; > 100 µM (inactive) in the test with SK-OV-3. Also, the GI50 in the test with SNB-75 is 16.7 µM (inactive); in the test with UACC-257, 27 µM (inactive); in the test with PC-3, 54.8 µM (inactive); with SF-295 it was > 100 µM (inactive); with HL-60, 23.1 µM (inactive); with UO-31 it was 30.1 µM (inactive). Moreover, the GI50 in the test on RPMI-8226 is 29.9 µM (inactive); with NCI-H226, 50.4 µM (inactive); in the test with OVCAR-8, 42.8 µM (inactive); with SW-620 it was > 100 µM (inactive); with NCI-H460, 38.1 µM (inactive); in the test with SK-MEL-28, 61.5 µM (inactive).
For the compound `CCN(CCO)CC1CCCC2CCCCC21` (configuration not stated), the GI50 in the test on CAKI-1, in the test with COLO 205, in the test on SN12C, with T47D, with SK-OV-3 and with SNB-75 was > 100 µM (inactive) in each case. Also, the GI50 in the test with UACC-257, in the test with PC-3, in the test with NCI-H522, in the test with SF-295, in the test on UO-31 and with RPMI-8226 was > 100 µM (inactive) in each case. The GI50 in the test on NCI-H226, in the test with OVCAR-8, with SW-620, in the test with NCI-H460, in the test on IGROV-1 and in the test with SK-MEL-28 was > 100 µM (inactive) each time.
As for `Cn1c(=O)c2nc(CCCc3ccc([N+](=O)[O-])cc3)[nH]c2n(C)c1=O`, the GI50 with CAKI-1, with LOX IMVI, in the test with COLO 205, with SN12C, in the test with T47D and in the test on SK-OV-3 was > 100 µM (inactive) each time. In addition, the GI50 in the test on SNB-75, with UACC-257, in the test with PC-3, in the test with NCI-H522, in the test on SF-295 and in the test on UO-31 was > 100 µM (inactive) throughout. Also, the GI50 in the test on RPMI-8226 is > 100 µM (inactive); with NCI-H226 it was > 100 µM (inactive); with OVCAR-8, > 100 µM (inactive); in the test with NCI-H460, 91.2 µM (inactive); in the test on IGROV-1, > 100 µM (inactive); in the test with SK-MEL-28 it was > 100 µM (inactive).
`C=C1C(=O)[C@@]23CC[C@@H]4[C@@]5(C)CCC[C@@]4(OC5=O)C2(C)CC[C@]1(OC)C3` (some centres not stated): the GI50 with CAKI-1 was 1.75 µM (inactive); with LOX IMVI, 0.232 µM (active); in the test with COLO 205, 2.38 µM (inactive); in the test on SN12C it was 1.73 µM (inactive); in the test on T47D it was 1.39 µM (inactive); with SNB-75, 1.24 µM (inactive). For the same compound, the GI50 is 1.51 µM (inactive) in the test on UACC-257; 1.05 µM (active) in the test with PC-3; 0.406 µM (active) in the test with NCI-H522; 3.4 µM (inactive) in the test with SF-295; 1.79 µM (inactive) with UO-31; 0.205 µM (active) in the test on RPMI-8226. Also, the concentration for 50% growth inhibition (GI50) was 0.611 µM (active) in the test with OVCAR-8; 0.718 µM (active) with SW-620; 1.93 µM (inactive) with NCI-H460; 1.97 µM (inactive) with IGROV-1; 1.65 µM (inactive) with SK-MEL-28.
`O=C1/C(=C\c2c(-c3ccccc3)[nH]n(-c3ccccc3)c2=O)C(c2ccccc2)=NN1c1ccccc1`: the GI50 in the test on CAKI-1, with LOX IMVI, with COLO 205, in the test on SN12C, with T47D and in the test with SK-OV-3 was > 100 µM (inactive) each time. Further, the GI50 in the test on SNB-75, in the test on UACC-257, in the test on PC-3, in the test with SF-295, in the test on HL-60 and in the test on UO-31 was > 100 µM (inactive) throughout. Besides, the GI50 in the test on RPMI-8226, in the test on NCI-H226, with OVCAR-8, in the test with SW-620, with NCI-H460 and in the test on IGROV-1 was > 100 µM (inactive) throughout. Also, in the test on SK-MEL-28, the GI50 was > 100 µM (inactive).
